Data from patent US20250235545A1, “POLYPEPTIDE CONJUGATE AND USE THEREOF” (SHANGHAI CHIXI BIOMEDICAL TECHNOLOGY CO., LTD, priority 2024, published 2025).
Read-outs that look alike come from different tables or passages of the source. Where a SMILES comes first, the peptide text is derived from it. The star is where a group is joined. X2 = CCCCN(CCc1c2c(nc3ccccc13)-c1cc3c(c(=O)n1C2)COC(=O)[C@]3(O)CC)*; X4 = CCCN(CCc1c2c(nc3ccccc13)-c1cc3c(c(=O)n1C2)COC(=O)[C@]3(O)CC)*; X5 = CC[C@@]1(O)C(=O)OCc2c1cc1n(c2=O)Cc2c-1nc1ccccc1c2CCN(CC(C)C)*; Propanoyl(3-maleimido) = O=C1C=CC(=O)N1CCC(=O)*; PEG6 = NCCOCCOCCOCCOCCOCCOCCC(=O)O

Legend:
[1] = system: colo320 colorectal cancer tumor model
Method in brief: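 Dosing was once a week for four weeks, with saline as control, in randomized groups of three mice. Groups were formed after subcutaneous colo320 xenografts (7.5×10^6 cells, right chest) grew to ≥120 mm^3 in female 6–8-week-old BALB/c nude mice.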

[2] = system: A2780 ovarian cancer tumor model; experiment: Efficacy in animal model of A2780 ovarian cancer, 30 mg/kg once a week for two weeks (Example 41); type: in vivo, BALB/c mice
Protocol: Test objective: To further compare the antitumor efficacy of different polypeptide Linkers in an animal tumor model of A2780 ovarian cancer.
Test drug: Polypeptide conjugate and normal saline control group.
8×10^6 corresponding cells were injected into right axillas of nude mice subcutaneously. […] The negative control group was administered normal saline. Administration was performed once a week for two weeks.

[3] = Tumor homogenate activation efficiency, non-small cell lung cancer tissue (Examples 28, 37); type: in vitro ADME; conditions: pH 5.0, 37° C., 2 h
Method in brief: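 Activation is reported as the fraction of free Belotecan peak area among all Belotecan-bearing peaks by HPLC. The conjugate (1 mg/ml) reacts with 100 μg homogenate for 2 h at 37° C in MES buffer, pH 5.0.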

[4] = Homogenate activation efficiency, heart tissue (Examples 28, 37); type: in vitro ADME; conditions: pH 5.0, 37° C., 2 h
[5] = MTD determination in mice (Examples 27, 36, 44); type: in vivo; conditions: female, mouse, in vivo, mice, monitored for 14 d; for MTD: read-out: MTD
Description: Test animals: 6-8 weeks old mice, all female; mice were grouped randomly, with six mice in each group, administered with drugs at different concentration gradients separately and monitored for 14 d. A mouse was euthanized at a loss of 20% of its initial weight and deemed to have died of poisoning.

[6] = Tumor homogenate activation efficiency, small cell lung cancer tissue (Example 28); type: in vitro ADME; conditions: pH 5.0, 37° C., 2 h; Table 5
Method in brief: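 Polypeptide conjugate at 1 mg/ml in 50 mM MES, 250 mM NaCl, pH 5.0 incubated with 100 μg small cell lung cancer tissue homogenate at 37° C. for 2 h. HPLC quantified Belotecan release as Belotecan peak area over total area of Belotecan plus all Belotecan-containing compounds.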

[7] = 15 mg/kg once a week for four weeks, Table 8
[8] = 45 mg/kg once a week for four weeks, Table 8
[9] = 15 mg/kg once a week for four weeks, Table 3
[10] = 45 mg/kg once a week for four weeks, Table 3
[11] = Table 14 (Example 43), dose 45 mg/kg, once a week for four weeks, BALB/c mice

Question: Which results are given for `CC[C@@]1(O)C(=O)OCc2c1cc1n(c2=O)Cc2c-1nc1ccccc1c2CCN(CC(C)C)C(=O)[C@H](CC(C)C)NC(=O)[C@H](CC(N)=O)NC(=O)[C@H](C)NC(=O)[C@H](C)NC(=O)CCOCCOCCOCCOCCOCCOCCNC(=O)CCN1C(=O)C=CC1=O` [MI-6PEG-AANL-D5] ({Propanoyl(3-maleimido)-PEG6}-AANL-X5)?
Answer: Mouse weight (%) [1, 7]: +19%; colo320 (colorectal cancer cell) growth rate (%) [1, 7]: 1027.54%; colo320 (colorectal cancer cell) mean tumor volume (mm^3) [1, 7]: 1257.2 mm^3; Mouse weight (%) [1, 8]: +19%; colo320 (colorectal cancer cell) growth rate (%) [1, 8]: 643.05%; colo320 (colorectal cancer cell) mean tumor volume (mm^3) [1, 8]: 755.9 mm^3; A2780 (ovarian cancer) mean tumor volume (mm^3) Day 1 [2]: 134.01 mm^3; A2780 (ovarian cancer) mean tumor volume (mm^3) Day 4 [2]: 254.52 mm^3; A2780 (ovarian cancer) mean tumor volume (mm^3) Day 7 [2]: 612.55 mm^3; A2780 (ovarian cancer) mean tumor volume (mm^3) Day 10 [2]: 730.28 mm^3; A2780 (ovarian cancer) mean tumor volume (mm^3) Day 14 [2]: 1116.71 mm^3; Growth rate (%) of A2780 (ovarian cancer) on Day 14 [2]: 833.30%; Mouse weight (%) on Day 14 [2]: +7.9%; Percentage of release efficiency (%) Non-small cell lung cancer tissue (A549) ([3]; Table 10): 85.5%; Percentage of release efficiency (%) Heart tissue ([4]; Table 10): 5.5%

Question: What does the source list for `CC[C@@]1(O)C(=O)OCC2=C1C=C1c3nc4ccccc4c(CCN(C(=O)OCc4ccc(NC(=O)[C@H](CC(N)=O)NC(=O)[C@H](C)NC(=O)[C@H](C)NC(=O)CCOCCOCCOCCOCCOCCOCCNC(=O)CCN5C(=O)C=CC5=O)cc4)C(C)C)c3CN1C2` [MI-6PEG-AAN-PAB-Belotecan]?
Answer: Mouse weight (%) [1, 9]: +29%; colo320 (colorectal cancer cell) growth rate (%) [1, 9]: 1105.40%; colo320 (colorectal cancer cell) mean tumor volume (mm^3) [1, 9]: 1224.3 mm^3; Mouse weight (%) [1, 10]: +6%; colo320 (colorectal cancer cell) growth rate (%) [1, 10]: 573.97%; colo320 (colorectal cancer cell) mean tumor volume (mm^3) [1, 10]: 635.7 mm^3; Mouse weight (%) [1, 11]: +6%; colo320 (colorectal cancer cell) growth rate (%) [1, 11]: 573.97%; colo320 (colorectal cancer cell) mean tumor volume (mm^3) [1, 11]: 635.7 mm^3; A2780 (ovarian cancer) mean tumor volume (mm^3) Day 1 [2]: 151.03 mm^3; A2780 (ovarian cancer) mean tumor volume (mm^3) Day 4 [2]: 282.87 mm^3; A2780 (ovarian cancer) mean tumor volume (mm^3) Day 7 [2]: 579.35 mm^3; A2780 (ovarian cancer) mean tumor volume (mm^3) Day 10 [2]: 837.75 mm^3; A2780 (ovarian cancer) mean tumor volume (mm^3) Day 14 [2]: 1135.00 mm^3; Growth rate (%) of A2780 (ovarian cancer) on Day 14 [2]: 751.51%; Mouse weight (%) on Day 14 [2]: +1.2%; MTD ([5]; Table 15 (Example 44), six per group): 100 mg/kg; MTD ([5]; Table 4): 100 mg/kg; Percentage of release efficiency (%) Non-small cell lung cancer tissue (A549) ([3]; Table 5): 79.9%; Percentage of release efficiency (%) Small cell lung cancer tissue (NCI-H841) [6]: 61.5%; Percentage of release efficiency (%) Heart tissue ([4]; Table 5): 2.7%

Question: With `CCCN(CCc1c2c(nc3ccccc13)-c1cc3c(c(=O)n1C2)COC(=O)[C@]3(O)CC)C(=O)[C@H](CC(C)C)NC(=O)[C@H](CC(N)=O)NC(=O)[C@H](C)NC(=O)[C@H](C)NC(=O)CCOCCOCCOCCOCCOCCOCCNC(=O)CCN1C(=O)C=CC1=O` [MI-6PEG-AANL-D3] ({Propanoyl(3-maleimido)-PEG6}-AANL-X4) as the compound, how does the “Mouse weight (%)” value [1, 7] read?
Answer: The value was “+18%”.

Question: What about the “colo320 (colorectal cancer cell) growth rate (%)” value (“colo320 … (%)” for short) [1, 7] of the same compound?
Answer: Its value is 1088.75%.

Question: And the “colo320 (colorectal cancer cell) mean tumor volume (mm^3)” value (“colo320 … (mm^3)” below) [1, 7]?
Answer: The value was 1279.8 mm^3.

Question: And the “Mouse weight (%)” value [1, 8]?
Answer: The value was “+18%”.

Question: And the “colo320 … (%)” value [1, 8]?
Answer: The value was 641.35%.

Question: And the “colo320 … (mm^3)” value [1, 8]?
Answer: The value was 753.9 mm^3.

Question: And the “A2780 (ovarian cancer) mean tumor volume (mm^3) Day 1” value [2]?
Answer: Its value is 134.07 mm^3.

Question: What about the “A2780 (ovarian cancer) mean tumor volume (mm^3) Day 4” value [2] of the same compound?
Answer: The value was 387.76 mm^3.

Question: What about the “A2780 (ovarian cancer) mean tumor volume (mm^3) Day 7” value [2] of the same compound?
Answer: The value was 768.59 mm^3.

Question: What about the “A2780 (ovarian cancer) mean tumor volume (mm^3) Day 10” value [2] of the same compound?
Answer: The value was 998.38 mm^3.

Question: What about the “A2780 (ovarian cancer) mean tumor volume (mm^3) Day 14” value [2] of the same compound?
Answer: Its value is 1508.23 mm^3.

Question: And the “Growth rate (%) of A2780 (ovarian cancer) on Day 14” value [2]?
Answer: The value was 1124.96%.

Question: What about the “Mouse weight (%) on Day 14” value [2] of the same compound?
Answer: Its value is “+12.2%”.

Question: What about the MTD at 14 d ([5]; Table 9) of the same compound?
Answer: Its MTD at 14 d is 200 mg/kg.

Question: What about the “Percentage of release efficiency (%) Non-small cell lung cancer tissue (A549)” value ([3]; Table 10) of the same compound?
Answer: Its value is 66.8%.

Question: What about the “Percentage of release efficiency (%) Heart tissue” value ([4]; Table 10) of the same compound?
Answer: The value was 3.9%.

Question: With `CCCCN(CCc1c2c(nc3ccccc13)-c1cc3c(c(=O)n1C2)COC(=O)[C@]3(O)CC)C(=O)[C@H](CC(C)C)NC(=O)[C@H](CC(N)=O)NC(=O)[C@H](C)NC(=O)[C@H](C)NC(=O)CCOCCOCCOCCOCCOCCOCCNC(=O)CCN1C(=O)C=CC1=O` [MI-6PEG-AANL-D4] ({Propanoyl(3-maleimido)-PEG6}-AANL-X2) as the compound, how does the “Mouse weight (%)” value [1, 7] read?
Answer: The value was “+17%”.

Question: And the “colo320 … (%)” value [1, 7]?
Answer: The value was 1081.25%.

Question: And the “colo320 … (mm^3)” value [1, 7]?
Answer: Its value is 1271.1 mm^3.

Question: And the “Mouse weight (%)” value [1, 8]?
Answer: The value was “+18%”.

Question: What about the “colo320 … (%)” value [1, 8] of the same compound?
Answer: Its value is 832.33%.

Question: And the “colo320 … (mm^3)” value [1, 8]?
Answer: The value was 978.4 mm^3.

Question: What about the “Mouse weight (%)” value [1, 11] of the same compound?
Answer: Its value is “+18%”.

Question: And the “colo320 … (%)” value [1, 11]?
Answer: Its value is 832.33%.

Question: And the “colo320 … (mm^3)” value [1, 11]?
Answer: Its value is 978.4 mm^3.

Question: What about the “A2780 (ovarian cancer) mean tumor volume (mm^3) Day 1” value [2] of the same compound?
Answer: Its value is 133.89 mm^3.

Question: What about the “A2780 (ovarian cancer) mean tumor volume (mm^3) Day 4” value [2] of the same compound?
Answer: The value was 309.51 mm^3.

Question: What about the “A2780 (ovarian cancer) mean tumor volume (mm^3) Day 7” value [2] of the same compound?
Answer: Its value is 703.24 mm^3.

Question: What about the “A2780 (ovarian cancer) mean tumor volume (mm^3) Day 10” value [2] of the same compound?
Answer: Its value is 894.45 mm^3.

Question: And the “A2780 (ovarian cancer) mean tumor volume (mm^3) Day 14” value [2]?
Answer: The value was 1345.03 mm^3.

Question: What about the “Growth rate (%) of A2780 (ovarian cancer) on Day 14” value [2] of the same compound?
Answer: Its value is 1004.58%.

Question: What about the “Mouse weight (%) on Day 14” value [2] of the same compound?
Answer: The value was “+14.5%”.

Question: And the “Percentage of release efficiency (%) Non-small cell lung cancer tissue (A549)” value ([3]; Table 10)?
Answer: Its value is 77.7%.

Question: And the “Percentage of release efficiency (%) Heart tissue” value ([4]; Table 10)?
Answer: Its value is 4%.
